Among the data in ChEMBL document CHEMBL2321830 (J Med Chem, 2013) are IC50 values, retold here.

Residue numbers refer to the chain shown, from its start. Some results are limits rather than exact numbers.

The target in assay [1] is T1, Prostaglandin G/H synthase 2 (Mus musculus, UniProt Q05769).
T1 sequence (Q05769 whole entry): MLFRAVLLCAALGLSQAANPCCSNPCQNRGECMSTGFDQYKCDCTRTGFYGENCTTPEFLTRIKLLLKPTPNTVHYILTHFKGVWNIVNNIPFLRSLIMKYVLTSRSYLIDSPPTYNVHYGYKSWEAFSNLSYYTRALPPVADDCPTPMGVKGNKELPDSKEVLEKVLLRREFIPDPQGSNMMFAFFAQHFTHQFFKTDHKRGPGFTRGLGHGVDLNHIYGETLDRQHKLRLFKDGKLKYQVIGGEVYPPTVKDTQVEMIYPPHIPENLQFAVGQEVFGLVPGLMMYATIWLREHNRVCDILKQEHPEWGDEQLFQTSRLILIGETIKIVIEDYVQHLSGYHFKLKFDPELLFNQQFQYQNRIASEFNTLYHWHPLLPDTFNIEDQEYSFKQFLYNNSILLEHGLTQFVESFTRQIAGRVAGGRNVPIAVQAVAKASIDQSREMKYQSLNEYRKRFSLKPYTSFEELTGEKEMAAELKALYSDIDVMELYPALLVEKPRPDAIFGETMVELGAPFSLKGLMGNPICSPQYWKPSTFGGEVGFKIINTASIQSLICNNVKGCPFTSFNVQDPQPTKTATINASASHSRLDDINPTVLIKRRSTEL
Description: Inhibition of wild type mouse COX2 by discontinuous radioactive TLC assay

The target in assay [2] is T2, Aldo-keto reductase family 1 member C4 (Homo sapiens, UniProt P17516).
T2 sequence (P17516 whole entry): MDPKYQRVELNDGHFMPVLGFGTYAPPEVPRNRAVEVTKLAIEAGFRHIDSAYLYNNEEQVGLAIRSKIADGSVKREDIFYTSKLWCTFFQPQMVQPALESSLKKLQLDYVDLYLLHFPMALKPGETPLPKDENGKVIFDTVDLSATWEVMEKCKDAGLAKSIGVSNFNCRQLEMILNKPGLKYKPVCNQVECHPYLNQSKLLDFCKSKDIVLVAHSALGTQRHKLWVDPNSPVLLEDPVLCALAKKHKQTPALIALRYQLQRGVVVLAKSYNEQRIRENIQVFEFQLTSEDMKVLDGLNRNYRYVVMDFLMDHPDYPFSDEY
As to the kind of experiment: Inhibition of human recombinant AKR1C4-mediated NADP+-dependent oxidation of S-(+)-1,2,3,4-tetrahydro-1-naphthol.

The target of assay [3] is T3, Aldo-keto reductase family 1 member C1 (Homo sapiens, UniProt Q04828).
T3 sequence (Q04828 whole entry): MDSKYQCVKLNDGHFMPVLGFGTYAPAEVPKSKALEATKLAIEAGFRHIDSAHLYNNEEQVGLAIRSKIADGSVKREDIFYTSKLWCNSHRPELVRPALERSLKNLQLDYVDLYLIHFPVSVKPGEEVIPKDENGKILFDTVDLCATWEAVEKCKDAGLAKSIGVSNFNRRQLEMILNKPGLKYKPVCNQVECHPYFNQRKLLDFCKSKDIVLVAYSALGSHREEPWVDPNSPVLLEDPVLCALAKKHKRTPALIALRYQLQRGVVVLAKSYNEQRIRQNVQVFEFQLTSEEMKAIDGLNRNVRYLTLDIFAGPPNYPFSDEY
The experiment in a line: Inhibition of human recombinant AKR1C1-mediated NADP+-dependent oxidation of S-(+)-1,2,3,4-tetrahydro-1-naphthol.

Assay [4] addresses T4, Prostaglandin G/H synthase 1 (Ovis aries, UniProt P05979).
T4 sequence (P05979 whole entry): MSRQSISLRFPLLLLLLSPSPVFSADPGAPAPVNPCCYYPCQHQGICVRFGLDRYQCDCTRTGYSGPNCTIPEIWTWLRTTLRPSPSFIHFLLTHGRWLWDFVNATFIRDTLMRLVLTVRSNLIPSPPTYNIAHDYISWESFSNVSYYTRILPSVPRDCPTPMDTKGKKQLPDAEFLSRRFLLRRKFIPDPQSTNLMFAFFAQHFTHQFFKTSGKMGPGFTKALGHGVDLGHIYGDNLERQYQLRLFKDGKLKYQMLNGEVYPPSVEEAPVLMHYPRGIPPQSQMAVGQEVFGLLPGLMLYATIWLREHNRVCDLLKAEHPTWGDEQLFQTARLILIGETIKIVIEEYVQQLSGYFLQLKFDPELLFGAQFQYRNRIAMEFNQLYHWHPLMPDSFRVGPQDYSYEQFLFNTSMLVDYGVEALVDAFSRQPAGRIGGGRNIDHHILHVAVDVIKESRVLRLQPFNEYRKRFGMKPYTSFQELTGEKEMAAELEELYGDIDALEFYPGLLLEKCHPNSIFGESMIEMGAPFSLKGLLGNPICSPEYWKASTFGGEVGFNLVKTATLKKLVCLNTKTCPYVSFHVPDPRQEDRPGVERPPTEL
Description: Inhibition of ovine COX1 by discontinuous radioactive TLC assay

The target in assay [5] is T5, Aldo-keto reductase family 1 member C2 (Homo sapiens, UniProt P52895).
T5 sequence (P52895 whole entry): T3 sequence (Q04828 whole entry) with T38V, R47H, L54V, C87S, V151M, R170H, Q172L
The experiment in a line: Inhibition of human recombinant AKR1C2-mediated NADP+-dependent oxidation of S-(+)-1,2,3,4-tetrahydro-1-naphthol.

In assay [6] the target is T6, Aldo-keto reductase family 1 member C3 (Homo sapiens, UniProt P42330).
T6 sequence (P42330 whole entry): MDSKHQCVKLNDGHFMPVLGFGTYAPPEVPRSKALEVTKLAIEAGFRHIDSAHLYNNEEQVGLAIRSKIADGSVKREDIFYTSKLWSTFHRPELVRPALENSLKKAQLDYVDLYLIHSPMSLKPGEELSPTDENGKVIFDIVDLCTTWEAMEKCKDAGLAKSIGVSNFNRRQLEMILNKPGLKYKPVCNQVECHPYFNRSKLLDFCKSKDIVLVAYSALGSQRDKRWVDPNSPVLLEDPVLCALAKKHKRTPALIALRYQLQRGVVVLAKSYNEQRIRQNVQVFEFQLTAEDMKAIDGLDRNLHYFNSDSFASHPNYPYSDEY
As to the kind of experiment: Inhibition of human recombinant AKR1C3-mediated NADP+-dependent oxidation of S-(+)-1,2,3,4-tetrahydro-1-naphthol.

As a reminder, the IC50 is the concentration that inhibits the measured activity by half. For the compound `CCc1c(CCC(=O)O)n(C(=O)c2ccc(Cl)cc2)c2ccc(OC)cc12`, 7 µM corresponded to half-maximal inhibition in assay [1] (IC50).
On to `COc1ccc2c(c1)c(CC(=O)NS(=O)(=O)C(F)(F)F)c(C)n2C(=O)c1ccc(Cl)cc1`, for which the IC50 in assay [2] and in assay [3] was above 100 µM each time.
Consider `COc1ccc2c(c1)c(CC(=O)O)cn2C(=O)c1ccc(Cl)cc1`, for which the IC50 is 15.3 µM in assay [4], above 100 µM in assay [3] and 3.27 µM in assay [1].
With `Cc1c(CC(=O)O)c2cc(F)ccc2n1C(=O)c1ccc(Cl)cc1`, the IC50 in assay [5] was determined as 6.19 µM; in assay [4] it was 0.49 µM; in assay [6], 0.25 µM; in assay [1], 0.09 µM.
In the case of `COc1ccc2c(c1)c(CCC(=O)O)c(C)n2C(=O)c1ccc(Cl)cc1`, the IC50 in assay [2] is above 100 µM.
For `COc1ccc2c(c1)c(CC(=O)O)c(C)n2C(=O)c1ccc(C(F)(F)F)cc1`, the IC50 in assay [2] and in assay [3] was above 100 µM each time.
For the compound `COc1ccc2c(c1)c(CC(=O)O)c(C)n2C(=O)c1ccc(C)cc1`, the IC50 in assay [2] and in assay [3] was above 100 µM throughout.
As for `COc1ccc2c(c1)c(CC(=O)NS(=O)(=O)C(F)(F)F)cn2C(=O)c1ccc(Cl)cc1`, the half-inhibitory concentration (IC50) in assay [2] and in assay [3] was above 100 µM in each case.
In the case of `COc1ccc2c(c1)c(CC(=O)NS(=O)(=O)c1ccccc1C)cn2C(=O)c1ccc(Cl)cc1`, the IC50 in assay [5] was found to be 15.3 µM; in assay [6], 8.82 µM.
